SMILES strings stand for the structures. Numbered stars: 1 amine (or outer) side, 2 acyl side, 3 side chain; on linkers, the order of the positions; unused ones are H or OH. Square brackets hold non-standard residues; d marks the D form. Peptide text beside a SMILES is read from it. X1 = O=C(c1ccc(-c2ccc(N3CCNCC3)cc2)c(CN[*:1])c1)[*:2]

For the experiment, the target named is T1, integrin α4β7 (Homo sapiens, UniProt P13612+P26010).
T1 construct: purchased R&D Systems 5397-A3-050
T1 sequence (P13612 34-970 limits assumed): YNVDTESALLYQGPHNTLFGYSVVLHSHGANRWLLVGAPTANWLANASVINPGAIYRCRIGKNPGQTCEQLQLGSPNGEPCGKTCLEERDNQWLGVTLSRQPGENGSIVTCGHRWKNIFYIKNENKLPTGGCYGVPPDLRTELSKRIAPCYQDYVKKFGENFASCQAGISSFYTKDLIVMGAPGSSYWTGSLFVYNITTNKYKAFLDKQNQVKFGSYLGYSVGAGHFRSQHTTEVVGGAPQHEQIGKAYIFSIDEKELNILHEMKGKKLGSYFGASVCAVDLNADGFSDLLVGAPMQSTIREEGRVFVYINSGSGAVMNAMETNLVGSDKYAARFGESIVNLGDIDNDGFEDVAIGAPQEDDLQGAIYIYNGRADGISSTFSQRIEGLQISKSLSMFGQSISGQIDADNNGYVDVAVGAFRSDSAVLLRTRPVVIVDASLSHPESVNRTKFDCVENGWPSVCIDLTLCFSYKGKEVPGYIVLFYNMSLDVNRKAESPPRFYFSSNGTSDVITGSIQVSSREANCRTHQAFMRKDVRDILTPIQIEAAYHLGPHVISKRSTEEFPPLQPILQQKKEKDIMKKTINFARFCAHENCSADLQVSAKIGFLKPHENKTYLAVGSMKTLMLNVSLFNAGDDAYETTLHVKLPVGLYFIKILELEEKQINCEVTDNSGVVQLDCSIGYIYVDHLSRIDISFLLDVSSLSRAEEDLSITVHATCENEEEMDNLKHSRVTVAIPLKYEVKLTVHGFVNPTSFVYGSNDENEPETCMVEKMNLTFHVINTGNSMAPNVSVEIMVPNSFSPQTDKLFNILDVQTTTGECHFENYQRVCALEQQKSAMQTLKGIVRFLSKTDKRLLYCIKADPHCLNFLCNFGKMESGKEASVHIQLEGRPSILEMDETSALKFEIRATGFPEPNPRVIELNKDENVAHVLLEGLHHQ
T1 sequence (P26010 20-723 limits assumed): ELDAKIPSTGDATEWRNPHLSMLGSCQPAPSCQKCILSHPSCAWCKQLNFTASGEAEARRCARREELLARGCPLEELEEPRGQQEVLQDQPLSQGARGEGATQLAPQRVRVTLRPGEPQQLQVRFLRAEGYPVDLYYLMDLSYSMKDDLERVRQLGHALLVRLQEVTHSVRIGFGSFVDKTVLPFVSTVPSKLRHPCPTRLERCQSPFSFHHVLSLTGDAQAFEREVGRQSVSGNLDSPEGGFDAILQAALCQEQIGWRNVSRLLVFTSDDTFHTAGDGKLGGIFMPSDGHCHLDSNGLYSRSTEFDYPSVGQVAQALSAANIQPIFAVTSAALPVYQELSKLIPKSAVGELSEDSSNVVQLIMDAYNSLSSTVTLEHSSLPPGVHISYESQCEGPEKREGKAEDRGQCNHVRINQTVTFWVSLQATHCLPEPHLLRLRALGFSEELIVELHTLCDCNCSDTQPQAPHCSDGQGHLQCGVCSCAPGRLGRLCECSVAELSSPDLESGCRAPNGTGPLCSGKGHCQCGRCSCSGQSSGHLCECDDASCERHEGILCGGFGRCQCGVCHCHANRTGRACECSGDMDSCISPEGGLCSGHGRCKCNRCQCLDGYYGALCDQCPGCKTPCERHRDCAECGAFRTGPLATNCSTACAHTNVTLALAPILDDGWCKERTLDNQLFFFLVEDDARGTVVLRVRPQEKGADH
The experiment can be described thus: Integrin α4β7-MAdCAM-1 ELISA competition assay. It counts as binding. The following applies: values of the second run. The method, then: Integrin α4β7-MAdCAM-1 ELISA Competition Assay
A 96-well Microlon plate (Greiner, 655001) was coated with 100 μl per well of a solution of 1 μg/ml recombinant integrin α4β7 (R&D Systems, 5397-A3-050) in carbonate buffer (50 mM, pH 9.6). The plate was incubated at 4′C overnight. The solution was removed and 250 μl blocking buffer (50 mM Tris, 150 mM NaCl, 1 mM MnCl2, 1% BSA, 0.05% Tween) was added per well. The plate was then incubated for 1 hour at room temperature. The plate was washed three times with wash buffer (50 mM Tris, 100 mM NaCl, 1 mM MnCl2, 0.05% Tween). To each well, 50 μl of compound diluted in assay buffer was added by transfer from a compound serial dilution plate. 50 μl recombinant MAdCAM-Fc (R&D systems, 6056-MC-050) at a concentration of 0.1 μg/ml in assay buffer (50 mM Tris, 150 mM NaCl, 1 mM MnCl2, 0.1% BSA, 0.05% Tween) was added to each well. The plate was incubated at room temperature with shaking (300 rpm) for 2 hours to reach binding equilibrium. Then the plate was washed three times in wash buffer and 100 μl anti-human IgG Fc specific-HRP (Abcam, Ab97225) diluted at 1:2000 in assay buffer was added to each well. The plate was incubated at room temperature for 1 hour under agitation. […] The reaction was stopped after 2 minute-incubation by adding 50 μl of 1M H2SO4 and optical absorbance was read at 450 nm.
A general note: In an ELISA, binding on a coated surface is turned into a signal by an enzyme label.

For `CC(C)C[C@@H]1NC(=O)c2ccc(-c3ccc(N4CCNCC4)cc3)c(c2)CNC(=O)[C@@H]2CCCN2C(=O)[C@H](C)NC(=O)[C@H]([C@@H](C)O)NC(=O)[C@H](CC(=O)O)NC1=O` [Compound 8] (cyclo(P[X1]LDTA)), the IC50 was roughly 24 nM.

One may read the IC50 as the concentration that inhibits the measured activity by half.
